pIC50: −log10 of the molar value. Activity calls are given as the source filed them. The rule behind the calls is not given here.
Columns and labels:
Saccharomyces cerevisiae [1] = experiment: Induction of DNA damage in Saccharomyces cerevisiae FM888 harboring rad52 deletion mutant assessed as growth inhibition at 5 to 100 uM after 24 hrs; format: functional
HL-60 = experiment: Antiproliferative activity against human HL60 cells after 48 hrs by MTT assay; format: functional, cell-based; conditions: HL-60, 48 h
Saccharomyces cerevisiae [2] = experiment: Induction of DNA damage in Saccharomyces cerevisiae FM588 expressing rad52 gene assessed as growth inhibition at 5 to 100 uM after 24 hrs; format: functional
HEL = experiment: Antiproliferative activity against human HEL cells after 48 hrs by MTT assay; format: functional, cell-based
SK-BR-3 = experiment: Antiproliferative activity against human SK-BR-3 cells after 48 hrs by MTT assay; format: functional, cell-based; conditions: SK-BR-3, 48 h
[3] = target: DNA topoisomerase 2-alpha (Homo sapiens) (UniProt P11388); experiment: Inhibition of human topoisomerase-2 alpha assessed as reduction in relaxation of supercoiled pRYG DNA at 100 uM after 30 min by agarose gel electrophoresis
Sequence of DNA topoisomerase 2-alpha (Homo sapiens) (P11388 whole entry): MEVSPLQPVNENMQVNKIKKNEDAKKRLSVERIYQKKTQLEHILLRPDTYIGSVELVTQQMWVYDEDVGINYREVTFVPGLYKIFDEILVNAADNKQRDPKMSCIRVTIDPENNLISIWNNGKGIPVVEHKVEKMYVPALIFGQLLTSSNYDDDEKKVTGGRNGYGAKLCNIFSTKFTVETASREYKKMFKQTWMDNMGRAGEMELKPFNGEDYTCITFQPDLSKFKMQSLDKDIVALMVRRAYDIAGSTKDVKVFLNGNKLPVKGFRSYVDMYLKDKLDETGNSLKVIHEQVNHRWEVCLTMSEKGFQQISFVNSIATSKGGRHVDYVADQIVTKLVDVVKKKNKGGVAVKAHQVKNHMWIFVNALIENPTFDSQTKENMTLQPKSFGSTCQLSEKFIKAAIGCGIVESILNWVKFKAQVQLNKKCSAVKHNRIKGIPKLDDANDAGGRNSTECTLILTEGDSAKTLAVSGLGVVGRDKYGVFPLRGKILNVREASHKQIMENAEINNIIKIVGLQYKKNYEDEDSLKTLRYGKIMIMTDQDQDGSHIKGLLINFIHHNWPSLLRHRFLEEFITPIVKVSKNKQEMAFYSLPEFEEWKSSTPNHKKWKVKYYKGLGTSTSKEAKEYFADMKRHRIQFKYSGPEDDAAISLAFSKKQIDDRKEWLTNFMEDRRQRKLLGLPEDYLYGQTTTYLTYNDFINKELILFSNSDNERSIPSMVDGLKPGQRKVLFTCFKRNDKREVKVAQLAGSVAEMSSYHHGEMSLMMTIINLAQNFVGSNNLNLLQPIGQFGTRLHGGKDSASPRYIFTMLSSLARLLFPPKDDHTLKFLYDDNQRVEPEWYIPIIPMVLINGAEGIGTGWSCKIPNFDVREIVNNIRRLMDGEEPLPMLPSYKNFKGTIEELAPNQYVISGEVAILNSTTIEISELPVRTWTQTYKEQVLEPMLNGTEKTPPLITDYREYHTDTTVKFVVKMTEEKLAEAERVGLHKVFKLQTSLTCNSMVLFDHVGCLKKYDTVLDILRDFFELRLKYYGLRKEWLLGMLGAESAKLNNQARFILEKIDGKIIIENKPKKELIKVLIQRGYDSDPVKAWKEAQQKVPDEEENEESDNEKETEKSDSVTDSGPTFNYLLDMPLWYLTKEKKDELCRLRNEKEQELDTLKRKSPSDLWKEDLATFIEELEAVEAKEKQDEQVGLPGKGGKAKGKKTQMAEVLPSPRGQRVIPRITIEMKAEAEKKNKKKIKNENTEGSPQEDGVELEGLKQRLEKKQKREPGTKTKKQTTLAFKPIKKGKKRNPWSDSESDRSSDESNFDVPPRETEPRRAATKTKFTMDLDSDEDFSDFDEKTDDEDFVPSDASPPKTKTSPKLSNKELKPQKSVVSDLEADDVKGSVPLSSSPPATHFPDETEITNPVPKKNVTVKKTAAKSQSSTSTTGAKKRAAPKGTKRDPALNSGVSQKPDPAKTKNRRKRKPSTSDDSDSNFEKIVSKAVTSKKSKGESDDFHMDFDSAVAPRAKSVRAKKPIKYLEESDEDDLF

[4] = target: DNA topoisomerase 2-alpha (Homo sapiens) (UniProt P11388); experiment: Poison activity at human topoisomerase-2 alpha assessed as increase in supercoiled pRYG DNA cleavage at 100 uM after 10 min

| Structure (SMILES) | Activity (Saccharomyces cerevisiae [1]) | pIC50 (HL-60) | Activity (Saccharomyces cerevisiae [2]) | pIC50 (HEL) | pIC50 (SK-BR-3) | Topoisomerase 2-alpha inhibition (active/not active) [3] | Activity [4] |
| --- | --- | --- | --- | --- | --- | --- | --- |
| COc1ccc(C#Cc2cc3c4c(cccc4c2)C(=O)N(CCN(C)C)C3=O)cc1 | Active | 5.96 | Active | 5.70 | 5.68 | – | – |
| CN(C)CCN1C(=O)c2cccc3cc(N)cc(c23)C1=O [AMONAFIDE] | – | 5.47 | – | 5.40 | – | – | – |
| CN(C)CCN1C(=O)c2cccc3cc(C#Cc4ccccc4)cc(c23)C1=O | Active | 5.34 | Active | 5.85 | 5.34 | Active | – |
| CN(C)CCN1C(=O)c2cccc3cc(C#Cc4cccc(O)c4)cc(c23)C1=O | Active | 4.99 | Active | 5.92 | < 4.52 | – | – |
| CN(C)CCN1C(=O)c2cccc3cc(C#Cc4ccoc4)cc(c23)C1=O | Active | 5.46 | Active | 5.25 | 5.02 | Active | – |
| CN(C)CCN1C(=O)c2cccc3cc(C#Cc4ccsc4)cc(c23)C1=O | Active | 5.27 | Active | 5.30 | < 5.00 | Active | Active |
| CN(C)CCN1C(=O)c2cccc3cc(C#Cc4cccc(C(F)(F)F)c4)cc(c23)C1=O | Active | 5.64 | Active | 5.66 | 7.00 | inactive | – |
| CN(C)CCN1C(=O)c2cccc3cc(C#Cc4cccc([N+](=O)[O-])c4)cc(c23)C1=O | Active | 4.87 | Active | 4.66 | < 5.00 | – | – |
| C#Cc1cc2c3c(cccc3c1)C(=O)N(CCN(C)C)C2=O | Active | 5.00 | Active | 5.09 | < 5.00 | – | – |
| COc1cc([C@@H]2c3cc4c(cc3[C@@H](O[C@@H]3O[C@@H]5CO[C@@H](C)O[C@H]5[C@H](O)[C@H]3O)[C@H]3COC(=O)[C@H]23)OCO4)cc(OC)c1O | – | – | – | – | – | – | Active |
| CN(C)CCN1C(=O)c2cccc3cc(C#Cc4ccc(O)cc4)cc(c23)C1=O | inactive | 5.24 | inactive | 4.88 | 5.68 | – | – |
| COc1cccc(C#Cc2cc3c4c(cccc4c2)C(=O)N(CCN(C)C)C3=O)c1 | Active | 6.00 | Active | 6.00 | 5.70 | – | – |
